Results: patent US20060229254A1, “Compounds having prolyl oligopeptidase inhibitory activity” (priority 2003, published 2006)

target: T1, pig brain prolyl oligopeptidase (Sus scrofa, UniProt P23687); assay: Inhibition of pig brain prolyl oligopeptidase (Suc-Gly-Pro-AMC fluorometric microplate assay); assay type: biochemical; conditions: pig brain supernatant, Suc-Gly-Pro-AMC substrate, 30 min preincubation, 30° C., pH 7.0
T1 construct: The brains were homogenized with a glass-teflon homogenisator in 3 volumes (w/v) of ice-cold 0.1 M sodium-potassium phosphate buffer; from tissue; host or cells: pig brain (whole brain excluding cerebellum and most of the brain stem), 10000 g supernatant of the homogenate
Protocol: The inhibitory effect of the novel compounds on POP activity of pig brain was determined with a method based on that described by Toide et al. (Toide, K, Iwamoto, Y., Fujiwara. T., Abe, H., J. Pharmacol. Exp. Ther., 1995, 274, 1370-1378) for the rat enzyme.
The whole pig brains, excluding cerebellum and most of the brain stem, of three pigs were placed in liquid nitrogen within 30 min from killing and stored at −80° C. until homogenized. The brains were homogenized with a glass-teflon homogenisator in 3 volumes (w/v) of ice-cold 0.1 M sodium-potassium phosphate buffer (pH 7.0) and the homogenates were centrifuged for 20 min at 4° C. at 10000 g. The supernatants were collected, pooled and stored in small aliquots at −80° C. until used. The supernatant was thawn in ice just before activity assay and diluted in a ratio 1:2 with homogenisation buffer (=enzyme preparation).
In the microplate assay procedure, 10 μl of enzyme preparation was preincubated with 460 μl of 0.1 M sodium-potassium phosphate buffer (pH 7.0) and 5 μl of a solution of novel compound dissolved in DMSO and diluted with 0.1 M sodium-potassium phosphate buffer at 30° C. for 30 min. The controls contained 10 μl enzyme preparation and 465 μl of 0.1 M sodium-potassium phosphate buffer (pH 7.0). The reaction was initiated by adding 25 μl of 4 mM Suc-Gly-Pro-AMC (AMC: 7-amido-4-methylcoumarin) dissolved in 0.1 M sodium-potassium phosphate buffer (pH 7.0), and the mixture was incubated at 30° C. for 60 min. The reaction was terminated by adding 500 μl of 1 M sodium acetate buffer (pH 4.2).
Formation of 7-amido-4-methylcoumarin was determined fluorometrically with microplate fluorescence reader (excitation at 360 nm and emission at 460 nm). The final concentration of novel compounds in the assay mixture varied from 10^−12 M to 10^−4 M.
The prolyl oligopeptidase activity was calculated with the following formula in the presence of various concentrations of novel compounds. To reveal the inhibitory potency of the novel compound, activities (% of control) were plotted against the log concentration of the compound, and the IC50 value was determined by non-linear regression utilizing GraphPad Prism software. Activity (% of control)=a/b×100, where
a=fluorescence intensity in the presence of a novel compound
b=fluorescence intensity without a novel compound (control)

T1 sequence (P23687 whole entry): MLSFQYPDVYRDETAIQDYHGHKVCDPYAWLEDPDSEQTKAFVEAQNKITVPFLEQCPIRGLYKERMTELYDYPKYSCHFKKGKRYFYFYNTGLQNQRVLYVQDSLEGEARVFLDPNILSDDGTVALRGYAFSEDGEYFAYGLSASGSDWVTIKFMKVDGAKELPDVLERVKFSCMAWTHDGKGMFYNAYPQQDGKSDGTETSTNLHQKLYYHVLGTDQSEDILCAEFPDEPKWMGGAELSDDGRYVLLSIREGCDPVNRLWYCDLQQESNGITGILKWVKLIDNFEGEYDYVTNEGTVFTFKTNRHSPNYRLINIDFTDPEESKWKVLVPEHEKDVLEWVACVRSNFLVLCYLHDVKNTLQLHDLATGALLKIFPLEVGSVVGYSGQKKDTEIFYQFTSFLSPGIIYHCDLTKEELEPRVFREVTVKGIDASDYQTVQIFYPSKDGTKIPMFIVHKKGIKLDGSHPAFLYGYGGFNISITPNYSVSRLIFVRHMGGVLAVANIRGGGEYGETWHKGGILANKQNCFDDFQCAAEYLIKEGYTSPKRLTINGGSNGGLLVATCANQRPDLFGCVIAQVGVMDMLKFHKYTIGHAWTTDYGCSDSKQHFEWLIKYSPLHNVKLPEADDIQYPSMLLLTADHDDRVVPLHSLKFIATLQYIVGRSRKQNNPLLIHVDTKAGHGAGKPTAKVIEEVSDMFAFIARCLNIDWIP

Point of comparison: “4-Phenylbutanoyl-5(R)-methyl-L-prolyl-pyrrolidine [Example 7]”, IC50 0.71 nM. Against it:
- 4-Phenylbutanoyl-5(S)-methyl-L-prolyl-pyrrolidine [Example 14] — 2-fold higher, 1.4 nM
- O=C(NCc1ccccc1)C1=CCCC1C(=O)N1CCC[C@H]1C(=O)CO (single isomer, unassigned) [Example 2] — 2.2-fold lower, 0.32 nM
- N#C[C@@H]1CCCN1C(=O)C1CCC=C1C(=O)NCc1ccccc1 (stereo partly drawn) [Example 1, 2-(Benzylcarbamoyl)-cyclopent-2-ene-carboxylic acid 2(S)-cyanopyrrolidine amide] — 1.9-fold lower, 0.38 nM
- O=C(NCc1ccccc1)C1=CCCC1C(=O)N1CCCC1 (stereo not shown) [Example 3, 2-Benzylcarbamoyl-cyclopent-2-ene-carboxylic acid pyrrolidine amide] — 13-fold higher, 9 nM
- O=C(Cc1ccccc1)C1=CCCC1C(=O)N1CCCC1 (stereo not shown) [Example 4, 2-Benzylcarbonyl-cyclopent-2-ene-carboxylic acid pyrrolidine amide] — 11-fold higher, 7.7 nM
- N#C[C@@H]1CCCN1C(=O)C1CCC=C1C(=O)CCCc1ccccc1 (stereo partly drawn) [Example 5, 2-(4-Phenylbutanoyl)-cyclopent-2-ene-carboxylic acid 2(S)-cyanopyrrolidine amide] — 3.4-fold lower, 0.21 nM
- C[C@@H]1CC[C@@H](C(=O)N2CCC[C@H]2C(=O)CO)N1C(=O)CCCc1ccccc1 [Example 8, 4-Phenylbutanoyl-5(R)-methyl-L-prolyl-2(S)-(hydroxyacetyl)-pyrrolidine] — 4.7-fold lower, 0.15 nM
- CC(C)(C)OC(=O)N1[C@H](C(=O)N2CCCC2)CC[C@@H]1C(C)(C)C [Example 9, Boc-5(R)-tert-butyl-L-prolyl-pyrrolidine] — 3.1-fold higher, 2.2 nM
- CC(C)(C)[C@H]1CC[C@@H](C(=O)N2CCCC2)N1C(=O)CCCc1ccccc1 [Example 11, 4-Phenylbutanoyl-5(R)-tert-butyl-L-prolyl-pyrrolidine] — 2.3-fold higher, 1.6 nM
- CC(C)(C)[C@H]1CC[C@@H](C(=O)N2CCC[C@H]2C(=O)CO)N1C(=O)CCCc1ccccc1 [Example 12, 4-Phenylbutanoyl-5(R)-tert-butyl-L-prolyl-2(S)-(hydroxyacetyl)-pyrrolidine] — 3-fold lower, 0.24 nM
- C[C@H]1CC[C@@H](C(=O)N2CCC[C@H]2C(=O)CO)N1C(=O)CCCc1ccccc1 [Example 15, 4-Phenylbutanoyl-5(S)-methyl-L-prolyl-2(S)-(hydroxyacetyl)-pyrrolidine] — 4.2-fold lower, 0.17 nM
- CC(C)(C)OC(=O)N1[C@H](C(C)(C)C)CC[C@H]1C(=O)N1CCCC1 [Example 16, Boc-5(S)-tert-butyl-L-prolyl-pyrrolidine] — 13-fold higher, 9.2 nM
